Experiment: xn = mol fraction of the nth substance listed
Conditions: 101.3 kPa, Liquid

CCOC(=O)OCC [diethyl carbonate] + CCCCCO
Conditions | viscosity [mPa·s]
293.15 K, x1 = 0.0496 | 3.384
293.15 K, x1 = 0.1016 | 2.868
293.15 K, x1 = 0.2034 | 2.125
293.15 K, x1 = 0.3124 | 1.618
293.15 K, x1 = 0.3801 | 1.412
293.15 K, x1 = 0.5085 | 1.162
293.15 K, x1 = 0.6047 | 1.051
293.15 K, x1 = 0.7068 | 0.955
293.15 K, x1 = 0.8058 | 0.88
293.15 K, x1 = 0.9058 | 0.825
293.15 K, x1 = 0.9521 | 0.804
293.15 K, x1 = 1 | 0.795
298.15 K, x1 = 0.0459 | 2.91
298.15 K, x1 = 0.0984 | 2.492
298.15 K, x1 = 0.2067 | 1.857
298.15 K, x1 = 0.3012 | 1.497
298.15 K, x1 = 0.4002 | 1.242
298.15 K, x1 = 0.5091 | 1.067
298.15 K, x1 = 0.5884 | 0.972
298.15 K, x1 = 0.6988 | 0.871
298.15 K, x1 = 0.7986 | 0.802
298.15 K, x1 = 0.9133 | 0.751
298.15 K, x1 = 0.9663 | 0.745
298.15 K, x1 = 1 | 0.749
303.15 K, x1 = 0.0541 | 2.471
303.15 K, x1 = 0.0951 | 2.186
303.15 K, x1 = 0.1968 | 1.664
303.15 K, x1 = 0.292 | 1.356
303.15 K, x1 = 0.3986 | 1.131
303.15 K, x1 = 0.4966 | 0.992
303.15 K, x1 = 0.5963 | 0.88
303.15 K, x1 = 0.6847 | 0.803
303.15 K, x1 = 0.7988 | 0.733
303.15 K, x1 = 0.8885 | 0.706
303.15 K, x1 = 0.9493 | 0.7
303.15 K, x1 = 1 | 0.699
313.15 K, x1 = 0.0505 | 1.97
313.15 K, x1 = 0.1009 | 1.729
313.15 K, x1 = 0.2038 | 1.359
313.15 K, x1 = 0.3044 | 1.12
313.15 K, x1 = 0.4054 | 0.96
313.15 K, x1 = 0.5077 | 0.845
313.15 K, x1 = 0.5969 | 0.771
313.15 K, x1 = 0.71 | 0.697
313.15 K, x1 = 0.81 | 0.65
313.15 K, x1 = 0.9036 | 0.623
313.15 K, x1 = 0.9537 | 0.621
313.15 K, x1 = 1 | 0.623

CCOC(=O)OCC [diethyl carbonate] + CCCCO
Conditions | viscosity [mPa·s]
293.15 K, x1 = 0.051 | 2.5
293.15 K, x1 = 0.1027 | 2.148
293.15 K, x1 = 0.2008 | 1.672
293.15 K, x1 = 0.2978 | 1.376
293.15 K, x1 = 0.4026 | 1.173
293.15 K, x1 = 0.5079 | 1.031
293.15 K, x1 = 0.6014 | 0.944
293.15 K, x1 = 0.7033 | 0.878
293.15 K, x1 = 0.7986 | 0.841
293.15 K, x1 = 0.9031 | 0.814
293.15 K, x1 = 0.951 | 0.81
293.15 K, x1 = 1 | 0.795
298.15 K, x1 = 0.0519 | 2.203
298.15 K, x1 = 0.0993 | 1.899
298.15 K, x1 = 0.1996 | 1.445
298.15 K, x1 = 0.2923 | 1.195
298.15 K, x1 = 0.3989 | 1.03
298.15 K, x1 = 0.5017 | 0.939
298.15 K, x1 = 0.6016 | 0.874
298.15 K, x1 = 0.7043 | 0.815
298.15 K, x1 = 0.8002 | 0.766
298.15 K, x1 = 0.8968 | 0.736
298.15 K, x1 = 0.9471 | 0.734
298.15 K, x1 = 1 | 0.749
303.15 K, x1 = 0.0508 | 1.905
303.15 K, x1 = 0.1004 | 1.642
303.15 K, x1 = 0.2016 | 1.3
303.15 K, x1 = 0.3 | 1.101
303.15 K, x1 = 0.3917 | 0.977
303.15 K, x1 = 0.5032 | 0.87
303.15 K, x1 = 0.597 | 0.794
303.15 K, x1 = 0.7099 | 0.729
303.15 K, x1 = 0.8216 | 0.699
303.15 K, x1 = 0.9035 | 0.697
303.15 K, x1 = 0.9488 | 0.697
303.15 K, x1 = 1 | 0.699
313.15 K, x1 = 0.0506 | 1.535
313.15 K, x1 = 0.1007 | 1.356
313.15 K, x1 = 0.2005 | 1.09
313.15 K, x1 = 0.2975 | 0.926
313.15 K, x1 = 0.4122 | 0.802
313.15 K, x1 = 0.5035 | 0.741
313.15 K, x1 = 0.6084 | 0.691
313.15 K, x1 = 0.7044 | 0.656
313.15 K, x1 = 0.8055 | 0.634
313.15 K, x1 = 0.9016 | 0.618
313.15 K, x1 = 0.9486 | 0.617
313.15 K, x1 = 1 | 0.623

— the NIST ThermoML archive (doi:10.1021/je0341413)
